Assay results published in publication PMC10317875, “PET imaging of PARP expression using ^68Ga-labelled inhibitors” (European Journal of Nuclear Medicine and Molecular Imaging, 2023).
pKd: −log10 of the molar value.

Columns and labels:
[1] = Plasma protein binding (ultrafiltration); format: in vitro ADME; details: mouse plasma
Experimental: To evaluate the plasma protein binding of the ^68Ga-labelled radiotracers, mouse blood from the heart was centrifuged at 4000 g for 5 min. The upper layer of blood was transferred to an EP tube and stored overnight in a refrigerator at 4 °C.
One hundred microliters of the ^68Ga-labelled radiotracer solution (0.74–1.48 MBq) was incubated with 100 μL of the above plasma. After 0.5, 1, and 2 h of incubation, the mixture was centrifuged at 15000 g for 10 min in a 30 K ultrafiltration tube. The radioactivity of the membrane and eluate was detected with a γ-counter. The radioactivity from the membrane, representing the tracer bound to plasma proteins, was estimated as a proportion of the total radioactivity of the sample. The experiment was repeated in triplicate.

[2] = Partition coefficient log P (octanol/ultrapure water); format: physicochemical; details: ultrapure water/octanol = 1/1
Experimental: Log P: Generally, approximately 74–185 kBq of the ^68Ga-labelled radiotracer was combined with a solvent mixture (2 mL, ultrapure water/octanol = 1/1). After 5 min of agitation in a vortex mixer, the aqueous and nonaqueous phases were separated by centrifugation at 15000 g. The radioactivity of each sampling layer (100 μL) was measured using a γ-counter. The trial was conducted five times.

[3] = Partition coefficient log D7.4 (octanol/PBS); format: physicochemical; details: PBS (pH = 7.4)/octanol = 1/1
Experimental: Log D7.4: Similarly, approximately 74–185 kBq of the ^68Ga-labelled radiotracer was combined with a solvent mixture (2 mL, PBS (pH = 7.4)/octanol = 1/1). The partition coefficient experiment was repeated, as mentioned previously.

[4] = Pharmacokinetics (blood clearance) in normal mice; format: in vivo; details: tail vein injection, blood radioactivity
Experimental: The pharmacokinetic parameters of the three ^68Ga-labelled radiotracers were evaluated in normal mice. The three ^68Ga-labelled radiotracers were injected into mice via the tail veins at a dose of 1.48–2.96 MBq/mouse in approximately 200 μL. Blood samples were obtained via the tail vein using tared capillary tubes at 1, 3, 5, 10, 15, 30, 60, 120, and 180 min after radiotracer injection. The blood volume drawn was approximately 0.5–0.8 dispense capillary volumes at each time point. Dispense capillary tube was from Shanghai Great Wall Scientific Instruments Store (size: 0.5 × 100; diameter: 0.5 mm; length: 100 mm). The radioactivity was determined with a γ-counter and decay-corrected to the injection time. All samples were weighed. The radioactive CPM (counts per minute) by dividing by the mass of blood in the capillary are presented as %ID/g. Finally, the pharmacokinetic parameters were analysed by GraphPad Prism 9.0.

[5] = tested on: SK-OV-3 and A549 cells; test: Cell uptake of radiotracers in SK-OV-3 and A549 cells; format: cell-based; details: 2 h incubation at 37 °C
Experimental: SK-OV-3 and A549 cells were seeded in 6-well plates (500 × 10^3/well) for 24 h. Then, the cells were incubated separately with the three ^68Ga-labelled radiotracers (740 kBq/1 mL in each well) at 37 °C. To eliminate unbound ^68Ga-labelled radiotracers, the cells were rinsed three times with PBS (0.5 mL) 2 h after incubation. Cell suspensions were produced after adding pancreatin (0.5–0.8 mL). Finally, a γ-counter was used to measure the radioactivity. The radioactivity data are presented as CPM (counts per minute) with time-decay correction. Three replicate experiments were conducted.

[6] = tested on: SK-OV-3 models; test: MicroPET/CT imaging of SK-OV-3 models; format: in vivo, BALB/c nude mice
Experimental: (§1) Female BALB/c nude mice (6–8 weeks old) were utilized in all tumor-bearing mouse experiments. Twelve BALB/c nude mice were subcutaneously injected with SK-OV-3 cells (1 × 10^6) into the right armpit. The mice were used for investigation after the tumor diameter reached approximately 0.5–1.1 cm.
Six SK-OV-3 models were separated into two groups (^68Ga-labelled radiotracers and blocked groups). The ^68Ga-labelled radiotracers (2.96–5.55 MBq in 200 μL of saline) were administered via tail vein injection. Approximately 5 min before PET acquisition, the mice were anaesthetized by inhalation of a mixture of isoflurane and positioned in the scanner. The PET data for each mouse were acquired at 0.5, 1, and 2 h after injection. In the blocking studies, ^68 Ga-DOTA-Olaparib was injected with a 500-fold excess of Olaparib (562.68 μg) in 200 μL of a solution consisting of 75% saline and 25% DMSO (dimethyl sulfoxide). PET acquisition was performed at 1 h postinjection. The target tissue’s radioactivity content was measured, and the tissue-associated activity was expressed as %ID/g.

[7] = tested on: A549 models; test: Ex vivo biodistribution in A549 models; design: species or system mice; details: 1 h
Experimental: (§2) To further compare and validate the specific uptake of ^68Ga-DOTA-Olaparib in different tumor models, biodistribution experiments were conducted with A549 models (10–12 weeks old, n = 3). ^68Ga-DOTA-Olaparib (1.22–5.59 MBq of ^68Ga-DOTA-Olaparib in 200 μL of saline) was administered via the lateral tail vein. After allowing the medication to circulate for varying amounts of time (0.5, 1, and 2 h), three mice were sacrificed. The tissue radioactivity (tumor, blood, muscle, bone, liver, spleen, kidney, heart, lung, bladder, brain, small intestine, and stomach) was measured using a γ-counter. The organs were weighed, and the γ-counter activity readings were decay-corrected to the injection time. Finally, the associated tissue activity was calculated by GraphPad Prism 9.0, and the data are expressed as %ID/g.

[8] = Ex vivo biodistribution in normal mice; details: 5-180 min after injection
Experimental: Normal mice (6–8 weeks old, n = 5) were utilized in the biodistribution experiments. ^68Ga-DOTA-Olaparib (0.74–2.96 MBq of 200 μL of saline) was administered via the lateral tail vein. The medication was allowed to circulate for 5, 15, 30, 60, 120, and 180 min before the mice were sacrificed. The radioactivity in the target tissues (blood, muscle, bone, liver, spleen, kidney, heart, lung, bladder, brain, small intestine, and stomach) was measured using a γ-counter. The organs were weighed, and the γ-counter activity readings were decay-corrected to the injection time. The corresponding tissue activity was then assessed using GraphPad Prism 9.0, and the data are presented as %ID/g using the following formula: [(activity in the target organ/target organ quality)/injected dose] * 100%.

[9] = tested on: SK-OV-3 models; test: Ex vivo biodistribution in SK-OV-3 models; design: species or system BALB/c nude mice
Experimental: as §1
as §2, with “Biodistribution” for “To further compare and validate the specific uptake of ^68Ga-DOTA-Olaparib in different tumor models, biodistribution”, “SK-OV-3” for “A549”, “(1.85–5.55” for “(1.22–5.59”
To verify specific tumor accumulation, ^68Ga-DOTA-Olaparib was administered with a 500-fold excess of Olaparib (530.94 μg) in 200 μL of a solution containing 75% saline and 25% DMSO via the lateral tail vein. After 1 h, mice (n = 3) were sacrificed to collect the tissues of interest. The associated tissue activity was measured as described above.

[10] = biological target: T1, PARP-1 protein (human, Recombinant (His Tag)) (Homo sapiens, UniProt P09874); test: Surface plasmon resonance (SPR) binding assay; details: SPR imaging
T1 construct: His tag; purchased Sino Biological 11,040-H08B
Experimental: Furthermore, the compound Olaparib was used as a reference for affinity. The surface plasmon resonance binding assays were conducted according to the previous protocol.

[11] = tested on: PARP-1 in SK-OV-3 cells; test: In vitro cell localization, FL-Olaparib confocal fluorescence with competition; details: FL-Olaparib 250 nM, presaturation with 1000-fold molar excess of competitor
Experimental: SK-OV-3 cells were plated on a confocal petri dish (diameter = 60 mm) at 500 × 10^3 cells/well density. […] The confocal dish was protected from light by wrapping it in tin foil. Three PBS washes (10 min each) were performed on each cell type. Paraformaldehyde was added for cell fixation, and DAPI was added for nuclear staining. The cells were rinsed twice with medium and once with PBS (5 min per wash) and observed using a confocal microscope (LEICA TCS SP5 II).
After 1 h of incubation, to determine the uptake by SK-OV-3 cells, assays were carried out and repeated as stated above.

O=C([O-])CN1CCN(CC(=O)O)CCN(CC(=O)[O-])CCN(CC(=O)NCC(=O)NCC(=O)NCC(=O)N2CCN(C(=O)c3cc(Cc4n[nH]c(=O)c5ccccc45)ccc3F)CC2)CC1.[68Ga+3] [68Ga-DOTA-(Gly)3-Olaparib]
plasma protein binding ([1]; 0.5 h): 39.32 ± 1.89% | plasma protein binding ([1]; 1 h): 43.08 ± 7.20% | plasma protein binding ([1]; 2 h): 43.56 ± 5.24% | log Poctanol/water [2]: -1.62 ± 0.075 | log Doctanol/PBS [3]: -1.75 ± 0.11 | clear-phase half-life (t1/2β) [4]: 23.19 min | distribution-phase half-life (t1/2α) [4]: 0.40 min | SK-OV-3/A549 uptake ratio [5]: 1.63 ± 0.13 | tumor uptake (PET/CT) ([6]; 0.5 h after injection): 0.96 ± 0.13 %ID/g | tumor uptake (PET/CT) ([6]; 1 h after injection): 0.57 ± 0.068 %ID/g | tumor uptake (PET/CT) ([6]; 2 h after injection): 0.91 ± 0.11 %ID/g

O=C([O-])CN1CCN(CC(=O)O)CCN(CC(=O)[O-])CCN(CC(=O)NCCCC(=O)N2CCN(C(=O)c3cc(Cc4n[nH]c(=O)c5ccccc45)ccc3F)CC2)CC1.[68Ga+3] [68Ga-DOTA-GABA-Olaparib]
plasma protein binding ([1]; 0.5 h): 59.62 ± 2.40% | plasma protein binding ([1]; 1 h): 83.84 ± 1.42% | plasma protein binding ([1]; 2 h): 58.13 ± 6.63% | log Poctanol/water [2]: -2.16 ± 0.12 | log Doctanol/PBS [3]: -2.49 ± 0.15 | clear-phase half-life (t1/2β) [4]: 47.69 min | distribution-phase half-life (t1/2α) [4]: 0.31 min | SK-OV-3/A549 uptake ratio [5]: 2.43 ± 0.45 | tumor uptake (PET/CT) ([6]; 0.5 h after injection): 0.96 ± 0.14 %ID/g | tumor uptake (PET/CT) ([6]; 1 h after injection): 0.56 ± 0.12 %ID/g | tumor uptake (PET/CT) ([6]; 2 h after injection): 0.98 ± 0.53 %ID/g

O=C([O-])CN1CCN(CC(=O)O)CCN(CC(=O)[O-])CCN(CC(=O)N2CCN(C(=O)c3cc(Cc4n[nH]c(=O)c5ccccc45)ccc3F)CC2)CC1.[68Ga+3] [68Ga-DOTA-Olaparib]
plasma protein binding ([1]; 0.5 h): 20.59 ± 1.23% | plasma protein binding ([1]; 1 h): 32.85 ± 4.11% | plasma protein binding ([1]; 2 h): 24.04 ± 0.80% | tumor uptake (ex vivo biodistribution) [7]: 0.43 ± 0.10 %ID/g | log Poctanol/water [2]: -2.33 ± 0.028 | log Doctanol/PBS [3]: -2.56 ± 0.026 | clear-phase half-life (t1/2β) [4]: 22.82 min | distribution-phase half-life (t1/2α) [4]: 1.97 min | SK-OV-3/A549 uptake ratio [5]: 1.47 ± 0.019 | order of clearance from the body [8]: kidney-bladder-urine | tumor/intestine ratio ([9]; 1 h after administration): 2.05 ± 0.072 | tumor/stomach ratio ([9]; 1 h after administration): 2.97 ± 0.73 | T/M ratio (ex vivo biodistribution) ([9]; 2 h): 12.64 ± 1.32 | tumor-to-bone ratio (ex vivo biodistribution) ([9]; 2 h): 3.85 ± 0.68 | tumor-to-brain ratio (ex vivo biodistribution) ([9]; 2 h): 15.63 ± 1.58 | bladder accumulation ([9]; SK-OV-3 models, 0.5 h): 5.80 ± 1.47 %ID/g | kidneys accumulation ([9]; SK-OV-3 models, 0.5 h): 3.11 ± 0.29 %ID/g | bladder accumulation ([9]; SK-OV-3 models, 1 h): 2.57 ± 0.72 %ID/g | kidneys accumulation ([9]; SK-OV-3 models, 1 h): 4.24 ± 0.22 %ID/g | tumor radioactivity (ex vivo biodistribution), blocked ([9]; SK-OV-3 models, 1 h, 500-fold excess of Olaparib): 0.25 ± 0.027 %ID/g | tumor radioactivity (ex vivo biodistribution) ([9]; SK-OV-3 models, 1 h postinjection): 1.26 ± 0.17 %ID/g | bladder accumulation ([9]; SK-OV-3 models, 2 h): 0.064 ± 0.025 %ID/g | kidneys accumulation ([9]; SK-OV-3 models, 2 h): 2.51 ± 0.33 %ID/g | T/M (tumor-to-muscle) ratio (PET/CT) ([6]; 0.5 h): approximately 3.54 ± 0.74 | T/M (tumor-to-muscle) ratio (PET/CT), blocked ([6]; 1 h, blocked with a 500-fold excess of Olaparib): 1.79 ± 0.26 | T/M (tumor-to-muscle) ratio (PET/CT) ([6]; 1 h, unblocked): ~4.07 ± 0.59 | tumor uptake (PET/CT) ([6]; 1 h after injection): ~2.37 ± 0.37 %ID/g | T/M (tumor-to-muscle) ratio (PET/CT) ([6]; 2 h): ~7.31 ± 0.51 | tumor uptake (PET/CT) ([6]; 2 h after injection): ~2.27 ± 0.32 %ID/g

O=C(O)CN1CCN(CC(=O)O)CCN(CC(=O)N2CCN(C(=O)c3cc(Cc4n[nH]c(=O)c5ccccc45)ccc3F)CC2)CCN(CC(=O)O)CC1 [DOTA-Olaparib]
pKd [10]: 7.84 | effect on FL-Olaparib fluorescence signals [11]: substantial reduction in fluorescence signals
